From EP0714404B1, “ANTI-INFLAMMATORY PEPTIDES” (CURATIVE TECHNOLOGIES, INC., priority 1993, dated 1995)
Read-outs that look alike come from different tables or passages of the source. Residues, ends and D or L forms follow the SMILES beside them.

How the values were obtained:
[1] = test system: leukotriene B4 (LTB4); experiment: carrageenan peritonitis, LTB4 content of peritoneal lavage fluid; type: in vivo, Mice; conditions: 60 mg/kg/day; 24 hr post-challenge
Method: (§1) Mice (C57BL/6UAF, females, 12 weeks old) were implanted with Alzet mini pumps set to deliver 60 mg CT-112/kg/day. Six days post-implantation, the mice were challenged with an intraperitoneal injection of 0.3 ml of carrageenan in PBS (10 mg/ml). The peritoneal cavity was lavaged with 15 ml of Hank's Balanced Salt Solution (Ca^2+- and Mg^2+-free) at 24, 48 and 72 hr post-challenge. The lavage fluid was centrifuged (500 g, 5 min), fixed with LeukoStat fixative and stained with LeukoStat staining solution. The slides were analyzed under a microscope for the different types of inflammatory cells, such as macrophages, lymphocytes and neutrophils. At the 48-hr time point, 5 control mice were also lavaged.
In a separate study, the peritoneal lavage fluid was analyzed for total leukotriene B4 (LTB4) and prostaglandin E2 (PGE2) content at 24 hr post-challenge (Griswold et al., 1991, Biochem. Pharmacol. 42(4):825-831).

[2] = test system: Salmonella; experiment: Salmonella reverse mutation assay; type: cell-based; conditions: 100-5,000 µg/ml, with or without rat liver microsomal enzyme activation
Text: The mutagenic potential of CT-112 (SEQ. ID NO: 1) has been assessed.

[3] = test system: neutrophils; experiment: neutrophil chemotaxis to f-Met-Leu-Phe (Neuroprobe chambers); type: cell-based; conditions: fluorescence at 530 nm, 1 hr; FIGURE 3
Method: The ability of CT-112 (SEQ. ID NO: 1) to inhibit chemotaxis of neutrophils in response to a variety of agents was assessed using Neuroprobe chemotaxis chambers. For these assays, neutrophils were resuspended in Hank's balanced salt solution with Ca^2+ and Mg^2+ to give a 5 x 10^6 cells/ml suspension after the cells were labeled with 1',7'-bis(2-carboxyethyl)-5-(6)-carboxyfluorescein. The neutrophils were exposed to CT-112 (SEQ. ID NO: 1) for approximately 15 min prior to addition to the chemotaxis chambers. CT-112 (SEQ. ID NO: 1) was present in both the top and bottom of the chambers, and the chemoattractant, either f-Met-Leu-Phe, leukotriene B4 or interleukin-8, was added to the bottom of chamber. Cells which had migrated through the membrane were determined by fluorescence at 530 nm at 1 hr after initiation of the assay.

[4] = acute toxicity in mice; type: in vivo; conditions: intravenous 100, 500 or 1,000 mg/kg
Method: Acute toxicity of CT-112 (SEQ. ID NO: 1) in mice and rats was assessed. Mice were dosed by intravenous injection with CT-112 (SEQ. ID NO: 1) at 100, 500 or 1,000 mg/kg.

[5] = test system: Inflammatory Cell Influx; experiment: carrageenan-induced model of peritonitis, inflammatory cell influx; type: in vivo, Mice; conditions: pump 60 mg CT-112/kg/day
Method: as §1

[6] = test system: Delayed Type Hypersensitivity; type: in vivo, mice
Method: CT-112 (SEQ. ID NO: 1) was tested for its ability to modulate the immune response in a mouse model of delayed hypersensitivity (Filipp et al., 1984, Allergy, 39: 499-507; Diezel et al., 1989 J. Invest. Dermatol. 93:322-326). The mice used in this study were 8-wk old hairless females (Jackson Laboratories). The mice were sensitized to a contact allergen (1-chloro-2,4-dinitrobenzene, DNCB) by painting the dorsothoracic region twice daily for 5 consecutive days with 50 µl of 0.5% DNCB in 75% acetone:25% vegetable oil. The animals were allowed to rest for 24 hr prior to challenge with DNCB. On the sixth day after initiation of the sensitization treatments, the animals were challenged with 50 µl of DNCB solution applied to the left ear. After 24 hrs, the ear thickness was determined and compared to the unchallenged ear.
The treatment groups were as follows: • a) PBS control; • b) Prednisone (intraperitoneal injection of 25 mg/kg, 2 hr prior to challenge); • c) 7-day pump (60 mg CT-112/kg/24 hr); • d) CT-112 (intraperitoneal injections of 60 mg/kg/injection at 3, 1, and 0.25 hr prior to challenge and 3, 6 and 21 hr post-challenge); • e) DMSO control (topical application of 50 µl at 3, 1 and 0.25 hr prior to challenge; and • f) CT-112 in DMSO (20 mg/ml, topical application of 50 µl at 3, 1, and 0.25 hr prior to challenge and 3, 6 and 21 hr post-challenge).

With `CC(C)[C@H](NC(=O)[C@H](CCC(N)=O)NC(=O)[C@H](CO)NC(=O)[C@@H](NC(=O)[C@@H](N)[C@@H](C)O)[C@@H](C)O)C(=O)N[C@@H](CCCNC(=N)N)C(=O)N1CCC[C@H]1C(=O)N[C@@H](CCCNC(=N)N)C(=O)O` [CT-112, Thr-Thr-Ser-Gln-Val-Arg-Pro-Arg] (H-TTSQVRPR-OH) the LTB4 [1] was 16.8 ± 11.5(5) pg in peritoneal lavage, the “number of revertants (histidine independent growth)” value [2] was “did not cause an increase” and the “chemotactic migration of neutrophils to f-Met-Leu-Phe” value [3] was “effectively inhibited”. For the same compound, the lesions at necropsy [4] was “No lesions were visible”, the “mean body weight or mean body weight gain” value ([4]; control vs treated) was “no statistical differences” and the clinical effects ([4]; one mouse at 500 and two at 1,000 mg/kg, day of treatment) was “Minimal transient clinical effects (hypoactivity and hypersensitivity)”. The “Absolute Cell Number Lymphocytes” value ([5]; 24 hr post carrageenan) was 16.9 ± 5.9, the “Absolute Cell Number Macrophages” value ([5]; 24 hr post carrageenan) was 19.5 ± 10 and the “Absolute Cell Number Neutrophils” value ([5]; 24 hr post carrageenan) was 106 ± 29. For the same compound, the “Absolute Cell Number Lymphocytes” value ([5]; 48 hr post carrageenan) was 12.5 ± 7.6, the “Absolute Cell Number Macrophages” value ([5]; 48 hr post carrageenan) was 126 ± 43 and the “Absolute Cell Number Neutrophils” value ([5]; 48 hr post carrageenan) was 134 ± 77. The “Absolute Cell Number Lymphocytes” value ([5]; 72 hr post carrageenan) was 45.1 ± 42, the “Absolute Cell Number Macrophages” value ([5]; 72 hr post carrageenan) was 255 ± 125 and the “Absolute Cell Number Neutrophils” value ([5]; 72 hr post carrageenan) was 48.4 ± 28. For the same compound, the “Thickness Difference (Left-Right)” value ([6]; 7-day pump, 60 mg CT-112/kg/24 hr) was 0.00087 ± 0.000398 in, the “Thickness Difference (Left-Right)” value ([6]; ip 60 mg/kg/injection at 3, 1, 0.25 hr prior and 3, 6, 21 hr post-challenge) was 0.00169 ± 0.000643 in and the “Thickness Difference (Left-Right)” value ([6]; topical, 20 mg/ml in DMSO, 50 µl at 3, 1, 0.25 hr prior and 3, 6, 21 hr post-challenge) was 0.0035 ± 0.000408 in.
